Data set [1] in a line: Apparent oral clearance in male ICR-CD1 mouse plasma at 40 mg/kg, po. It is filed as ADME, organism-based. Conditions: in vivo; call rule not given here.
A short description of data set [2]: Apparent oral clearance in male ICR-CD1 mouse liver at 40 mg/kg, po. The data set is classed as ADME, organism-based.
Data set [3] in a line: Half life in male ICR-CD1 mouse plasma at 40 mg/kg, po. The data set is classed as ADME, organism-based.
Data set [4] in a line: Tmax in male ICR-CD1 mouse plasma at 40 mg/kg, po. The data set is classed as ADME, organism-based.
Data set [5] is described as follows: AUCextrap in male ICR-CD1 mouse plasma at 40 mg/kg, po. The data set is classed as ADME, organism-based.
Data set [6] can be described thus: AUC(0 to infinity) in male ICR-CD1 mouse plasma at 40 mg/kg, po. The data set is classed as ADME, organism-based. Conditions: in vivo.
Data set [7] can be described thus: Toxicity in CF1 mouse infected with asexual blood-stage (ABS) Plasmodium yoelii MRA-428 assessed as hyperactivity at 0.3 to 30 mg/kg, po treated 24 hrs post infection measured after 4 days. The data set is classed as organism-based. Conditions: in vivo, 96 h, dose 0.3-30 mg/kg, time 4 day.
Data set [8] in a line: Toxicity in CF1 mouse infected with asexual blood-stage (ABS) Plasmodium yoelii MRA-428 assessed as hunching at 0.3 to 30 mg/kg, po treated 24 hrs post infection measured after 4 days. The data set is classed as organism-based. Conditions: in vivo, 96 h, dose 0.3-30 mg/kg, time 4 day.
The test system of data set [9] is Plasmodium berghei. The data set is described as follows: In vivo antiplasmodial activity against luciferase expressing liver stage Plasmodium berghei ANKA MRA-868 sporozoites infected in Albino C57BL/6 mouse model assessed as protection at 40 mg/kg, po daily measured 24 to 72 hrs by real-time In Vivo Imaging System (IVIS). Conditions: time 24-72 hrs. It is filed as functional.

A short description of data set [10]: Toxicity in CF1 mouse infected with asexual blood-stage (ABS) Plasmodium yoelii MRA-428 assessed as behavioural change at 0.3 to 30 mg/kg, po treated 24 hrs post infection measured after 4 days. It is filed as organism-based. Conditions: in vivo, dose 0.3-30 mg/kg.
A short description of data set [11]: Toxicity in CF1 mouse infected with asexual blood-stage (ABS) Plasmodium yoelii MRA-428 assessed as clinical toxicity at 0.3 to 30 mg/kg, po treated 24 hrs post infection measured after 4 days. It is filed as organism-based. Conditions: in vivo, dose 0.3-30 mg/kg.
Data set [12] is described as follows: AUClast in male ICR-CD1 mouse liver at 40 mg/kg, po. It is filed as ADME, organism-based.
For the next data set, the system named is HepG2. In words: Cytotoxicity against human HepG2 cells assessed as cell viability measured after 48 hrs by MTT assay. Conditions: HepG2, 48 h. It is filed as functional, cell-based.
The test system of data set [13] is Plasmodium yoelii. The data set is described as follows: In vivo antiplasmodial activity against asexual blood-stage (ABS) Plasmodium yoelii MRA-428 infected in 4-day suppression CF1 mouse model assessed as reduction in parasitemia treated 24 hrs post infection daily measured on day 4. It is filed as functional.
Data set [14] relates to Plasmodium yoelii. The data set is described as follows: In vivo antiplasmodial activity against asexual blood-stage (ABS) Plasmodium yoelii MRA-428 infected in 4-day suppression CF1 mouse model assessed as reduction in parasitemia by measuring protection at 30 mg/kg, po treated 24 hrs post infection daily measured up to 28 days. It is filed as functional, organism-based. Conditions: time <= 28.0 day.

A short description of data set [15]: AUClast in male ICR-CD1 mouse plasma at 40 mg/kg, po. It is filed as ADME, organism-based.
Data set [16] concerns Plasmodium yoelii. The data set is described as follows: In vivo antiplasmodial activity against asexual blood-stage (ABS) Plasmodium yoelii MRA-428 infected in 4-day suppression CF1 mouse model assessed as reduction in parasitemia by measuring protection at 10 mg/kg, po treated 24 hrs post infection daily for 4 days relative to control. The data set is classed as functional. Also on record: scale not given: the % may be the effect or the level left.

The test system of another data set is Plasmodium cynomolgi. In words: Antiplasmodial activity against schizont Plasmodium cynomolgi B strain infected in Macaca mulatta hepatocytes incubated with sporozoite containing salivary gland homogenate obtained from dissected Anopheles dirus mosquitoes (infected with Plasmodium cynomolgi B strain) treatment started on day 4 post infection and continued daily for 4 days into fresh changed media until day 8 assessed as Liver stage (LS) activity by measuring radical cure mode by immunofluorescent staining analysis. The data set is classed as functional, organism-based. Conditions: Hepatocyte.

A short description of data set [17]: MRTlast in male ICR-CD1 mouse plasma at 40 mg/kg, po. The data set is classed as ADME, organism-based.
For data set [18] the following is noted: mouse, microsomes, 1 h.
Data set [19] has as its system Plasmodium berghei. In words: In vivo antiplasmodial activity against luciferase expressing liver stage Plasmodium berghei ANKA MRA-868 sporozoites infected in Albino C57BL/6 mouse model assessed as cured mouse at 40 mg/kg, po daily measured after 31 days. The data set is classed as functional, organism-based. Conditions: time 31.0 day.
The test system of data set [20] is Plasmodium falciparum. The data set is described as follows: Synergistic antiplasmodial activity against multi-drug resistant Plasmodium falciparum Tm90-C2B assessed as fractional inhibitory concentration in presence of tafenoquine. It is filed as functional.
The target of data set [21] is Voltage-gated inwardly rectifying potassium channel KCNH2 (Homo sapiens, UniProt Q12809). The data set is described as follows: Inhibition of hERG expressed in HEK293 cells by manual patch clamp assay. The data set is classed as toxicity, cell-based.
Sequence of Voltage-gated inwardly rectifying potassium channel KCNH2 (Q12809 whole entry): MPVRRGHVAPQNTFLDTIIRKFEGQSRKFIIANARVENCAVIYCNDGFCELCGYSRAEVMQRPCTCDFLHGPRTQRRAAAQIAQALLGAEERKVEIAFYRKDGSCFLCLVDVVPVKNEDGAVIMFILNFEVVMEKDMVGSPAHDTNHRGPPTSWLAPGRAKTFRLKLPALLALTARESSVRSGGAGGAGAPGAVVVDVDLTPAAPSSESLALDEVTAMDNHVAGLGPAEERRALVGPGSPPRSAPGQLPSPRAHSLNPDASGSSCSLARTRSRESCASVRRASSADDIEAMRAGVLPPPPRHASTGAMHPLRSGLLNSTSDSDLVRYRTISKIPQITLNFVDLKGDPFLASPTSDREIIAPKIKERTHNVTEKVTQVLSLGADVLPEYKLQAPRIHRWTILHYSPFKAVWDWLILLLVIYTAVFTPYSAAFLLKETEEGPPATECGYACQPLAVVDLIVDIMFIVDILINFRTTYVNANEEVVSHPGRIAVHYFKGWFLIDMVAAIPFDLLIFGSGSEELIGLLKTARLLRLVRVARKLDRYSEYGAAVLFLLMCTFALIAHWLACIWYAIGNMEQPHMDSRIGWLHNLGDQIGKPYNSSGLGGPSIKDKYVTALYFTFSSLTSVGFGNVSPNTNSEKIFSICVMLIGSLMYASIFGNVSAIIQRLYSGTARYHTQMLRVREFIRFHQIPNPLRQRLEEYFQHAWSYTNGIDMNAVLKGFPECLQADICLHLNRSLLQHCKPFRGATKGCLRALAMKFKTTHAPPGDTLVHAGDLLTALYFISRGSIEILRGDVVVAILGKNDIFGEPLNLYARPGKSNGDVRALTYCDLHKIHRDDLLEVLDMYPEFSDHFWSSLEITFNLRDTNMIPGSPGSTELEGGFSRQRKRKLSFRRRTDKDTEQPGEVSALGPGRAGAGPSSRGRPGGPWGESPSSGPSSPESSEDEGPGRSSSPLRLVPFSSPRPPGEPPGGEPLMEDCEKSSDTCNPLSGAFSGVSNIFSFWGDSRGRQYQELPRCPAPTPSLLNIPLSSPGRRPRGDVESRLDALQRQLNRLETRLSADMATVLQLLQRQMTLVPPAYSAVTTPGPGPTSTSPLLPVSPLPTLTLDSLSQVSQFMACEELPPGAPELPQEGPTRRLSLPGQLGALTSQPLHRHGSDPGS
Data set [22] deals with Plasmodium falciparum. In words: Antiplasmodial activity against AART-resistant Plasmodium falciparum DR4 measured after 72 hrs by drug susceptibility test. It is filed as functional, organism-based. Conditions: DR4, 72 h.
Data set [23] relates to Plasmodium falciparum. The data set is described as follows: Ex vivo antiplasmodial activity against clinical isolate Plasmodium falciparum isolated from Ugandan measured after 72 hrs by growth inhibition assay. It is filed as functional, organism-based.
Data set [24] has as its system Plasmodium falciparum. The data set is described as follows: Antiplasmodial activity against AART-resistant Plasmodium falciparum DR1 measured after 72 hrs by drug susceptibility test. Conditions: DR1, 72 h. The data set is classed as functional, organism-based.
Data set [25] deals with Plasmodium falciparum. In words: Synergistic antiplasmodial activity against pan-sensitive Plasmodium falciparum D6 assessed as fractional inhibitory concentration in presence of tafenoquine. It is filed as functional.
Data set [26] deals with Plasmodium falciparum. The data set is described as follows: Antiplasmodial activity against Plasmodium falciparum Dd2 measured after 72 hrs by drug susceptibility test. It is filed as functional, organism-based. Conditions: Dd2, 72 h.

Consider `O=c1c2c([nH]c3cc(Oc4ccc(OC(F)(F)F)cc4)c(F)cc13)CCCC2`, for which the values for the CL/F in [1] and in data set [2] were 87.98 mL/min/kg and 3.58 mL/min/kg, respectively. The half-life in data set [3] is 3.89 h. For the same molecule, the Tmax in data set [4] was found to be 1 h. Moreover, the AUC in [5] was found to be 23.7%; in data set [6], 219 ng·h/mL. For the same molecule, the Activity entry was “Non-toxic” in data set [7]; “Non-toxic” in [8]; 100% in the data set with Plasmodium berghei [9]; “Non-toxic” in data set [10]; “Non-toxic” in data set [11]; “Active; Out Of 4 - 3 Mouse Cured” in the data set on Plasmodium yoelii [14]. Besides, the Activity in the data set on Plasmodium yoelii [16] is on record as 100%. Moreover, the AUC(0-t) in data set [12] came to 5470 ng·h/mL; in data set [15] it was 167 ng·h/mL. Also, the IC50 is over 200000 nM in the data set with HepG2 and 2410 nM in the data set on Plasmodium cynomolgi. Further, the 50% effective dose (ED50) in the data set with Plasmodium yoelii [13] stood at 1.5 mg/kg. Also, the ED90 with Plasmodium yoelii [13] is 4.7 mg/kg. The molecule also gave an MRT last in data set [17] of 2.95 h.

The molecule `O=c1c2c([nH]c3cc(Oc4ccc(OC(F)(F)F)cc4)ccc13)CCCC2` showed a t1/2 in data set [18] of 0.197 h. Also, the CL/F in data set [2] was 0.542 mL/min/kg. The Activity result in the data set with Plasmodium berghei [19] is on record as “Active; Out Of 5 - 5 Mouse Cured”; in [7], “Non-toxic”; in data set [8], “Non-toxic”; in the data set with Plasmodium berghei [9], 100%; in [10], “Non-toxic”; in data set [11], “Non-toxic”. Besides, in the data set on Plasmodium yoelii [14], the Activity entry is “Active; Out Of 4 - 3 Mouse Cured”. Further, the Tmax in data set [4] is 1 h. In addition, the FIC with Plasmodium falciparum [20] is listed as 0.76; in the data set with Plasmodium falciparum [25], 0.81. Further, the IC50 was over 10000 nM in data set [21]; 5.35 nM in the data set on Plasmodium falciparum [22]; 10.5 nM in the data set with Plasmodium falciparum [23]; 5.26 nM in the data set on Plasmodium falciparum [24]; 99400 nM in the data set with HepG2; 380 nM with Plasmodium cynomolgi. This molecule also registered a 50% inhibitory concentration (IC50) in the data set on Plasmodium falciparum [26] of 2.06 nM. The AUC(0-t) came out at 32900 ng·h/mL in data set [12] and 472 ng·h/mL in data set [15]. In addition, the MRT last in data set [17] was 4.1 h.

The values are drawn from ChEMBL document CHEMBL6134844, “Development of Next-Generation Antimalarial Acridones with Radical Cure Potential” (J Med Chem, 2025).
